The test system of one series is ThNAD-MEβ1. The series is described as follows: NADH formation at […] nm. The format is biochemical, Tarenaya hassleriana. The conditions noted are these: read-out: Km malate; 4 mM NAD, 10 mM MnCl2, MES pH 6.2-6.4.
The next series has as its system GgNAD-MEβ2. The experiment in a line: NADH formation at […] nm. The series is classed as biochemical, Gynandropsis gynandra. The conditions noted are these: read-out: Km malate; no aspartate; 4 mM NAD, 10 mM MnCl2, MES pH 6.2-6.4.
The test system of the next series is ThNAD-MEβ2. The series is described as follows: NADH formation at […] nm. The conditions noted are these: read-out: Km malate; 4 mM NAD, 10 mM MnCl2, MES pH 6.2-6.4. The format is biochemical, Tarenaya hassleriana.
In the next series the test system is GgNAD-MEα/β2. The series is described as follows: NADH formation at […] nm. The series is classed as biochemical, Gynandropsis gynandra. The conditions noted are these: read-out: Km malate; no aspartate; 4 mM NAD, 10 mM MnCl2, MES pH 6.2-6.4.
The next series concerns GgNAD-MEα. The series is described as follows: NADH formation at […] nm. Particulars: read-out: Km malate; 4 mM NAD, 10 mM MnCl2, MES pH 6.2-6.4. The format is biochemical, Gynandropsis gynandra.
The test system of another series is ThNAD-MEα/β2. The experiment in a line: NADH formation at […] nm. The format is biochemical, Tarenaya hassleriana. The conditions noted are these: read-out: Km malate; 4 mM NAD, 10 mM MnCl2, MES pH 6.2-6.4.
The test system of a further series is ThNAD-MEα. The experiment in a line: NADH formation at […] nm. The format is biochemical, Tarenaya hassleriana. Particulars: read-out: Km malate; 4 mM NAD, 10 mM MnCl2, MES pH 6.2-6.4.
The test system of a further series is ThNAD-MEα/β1. The series is described as follows: NADH formation at […] nm. The series is classed as biochemical, Tarenaya hassleriana. The conditions noted are these: read-out: Km malate; 4 mM NAD, 10 mM MnCl2, MES pH 6.2-6.4.
Substrate in the series “purified protein”: O=C(O)C[C@H](O)C(=O)O
The experiment in a line: purified protein. The conditions noted are these: no aspartate; 4 mM NAD, 10 mM MnCl2, MES pH 6.2-6.4; pH 6.0.

From doi:10.1101/2021.06.16.448762v1 (biorxiv, 2021) come the findings set out here.

The Km is the concentration of substrate that gives half-maximal velocity. In the case of `O=C(O)C[C@H](O)C(=O)O` [malate], the Km in the series with ThNAD-MEβ1 came out at 9.2 ± 2.3 mM; in the series on GgNAD-MEβ2 it was 2.6 ± 1 mM; with ThNAD-MEβ2, 6.8 ± 1.7 mM; in the series on GgNAD-MEα/β2, 3.5 ± 0.5 mM; with GgNAD-MEα it was 3.1 ± 0.4 mM; in the series on ThNAD-MEα/β2, 3.4 ± 1 mM. In addition, the Km in the series on ThNAD-MEα is 5.4 ± 1.3 mM; in the series with ThNAD-MEα/β1, 6.6 ± 1.6 mM.

B1: AtNAD-MEα/β (Arabidopsis thaliana) (protein)
chain 1: PTIVHKQGLDILHDPWFNKGTAFTMTERNRLDLRGLLPPNVMDSEQQIFRFMTDLKRLEEQARDGPSDPNALAKWRILNRLHDRNETMYYKVLINNIEEYAPIVYTPTVGLVCQNYSGLFRRPRGMYFSAEDRGEMMSMVYNWPAEQVDMIVVTDGSRILGLGDLGVHGIGIAVGKLDLYVAAAGINPQRVLPVMIDVGTNNEKLRNDPMYLGLQQRRLEDDDYIDVIDEFMEAVYTRWPHVIVQFEDFQSKWAFKLLQRYRCTYRMFNDDVQGTAGVAIAGLLGAVRAQGRPMIDFPKMKIVVAGAGSAGIGVLNAARKTMARMLGNTETAFDSAQSQFWVVDAQGLITEGRENIDPEAQPFARKTKEMERQGLKEGATLVEVVREVKPDVLLGLSAVGGLFSKEVLEAMKGSTSTRPAIFAMSNPTKNAECTPQDAFSILGENMIFASGSPFKNVEFGNGHVGHCNQGNNMYLFPGIGLGTLLSGAPIVSDGMLQAASECLAAYMSEEEVLEGIIYPPISRIRDITKRIAAAVIKEAIEEDLVEGYREMDAREIQKLDEEGLMEYVENNMWNPEYPTLVYKDD
chain 2: CIVHKRGADILHDPWFNKDTGFPLTERDRLGIRGLLPPRVMTCVQQCDRFIESFRSLENNTKGEPENVVALAKWRMLNRLHDRNETLYYRVLIDNIKDFAPIIYTPTVGLVCQNYSGLYRRPRGMYFSAKDKGEMMSMIYNWPAPQVDMIVITDGSRILGLGDLGVQGIGIPIGKLDMYVAAAGINPQRVLPIMLDVGTNNEKLLQNDLYLGVRQPRLEGEEYLEIIDEFMEAAFTRWPKAVVQFEDFQAKWAFGTLERYRKKFCMFNDDVQGTAGVALAGLLGTVRAQGRPISDFVNQKIVVVGAGSAGLGVTKMAVQAVARMAGISESEATKNFYLIDKDGLVTTERTKLDPGAVLFAKNPAEIREGASIVEVVKKVRPHVLLGLSGVGGIFNEEVLKAMRESDSCKPAIFAMSNPTLNAECTAADAFKHAGGNIVFASGSPFENVELENGKVGHVNQANNMYLFPGIGLGTLLSGARIVTDGMLQAASECLASYMTDEEVQKGILYPSINNIRHITAEVGAAVLRAAVTDDIAEGHGDVGPKDLSHMSKEDTVNYITRNMWFPVYSPLVHEK
The kcat is the maximal rate divided by the concentration of active sites. In the case of B1, in the series “purified protein”, the Km was 3.2 ± 0.4 mM and the kcat turned out to be 30.7 ± 2.0 s⁻¹.
